These results are taken from patent publication US7951548B2, “IL-13 production inhibitor” (Takeda Pharmaceutical Company Limited, priority 2005, dated 2011).

In test [1] the test system is rat peritoneal mast cells. Description: Expression of IL-13 in rat peritoneal mast cells (TaqMan PCR, GAPDH corrected). Type of test: cell-based. How it is done:
Rat peritoneal mast cells (hereinafter RPMC) were prepared as follows. Ice-chilled mast cell medium (hereinafter MCM; 150 mM NaCl, 3.7 mM KCl, 3.0 mM NaH2PO4, 3.5 mM KH2PO4, 5.6 mM (D)-Glucose, 0.1% bovine serum albumin (hereinafter BSA), 0.1% gelatin, 10 U/ml heparin, pH 6.8) was injected into the peritoneal cavity in about 40 ml/animal. After some massage of the rat abdominal region for about 2 minutes, the peritoneal cavity was opened along the median line to drain the ascitic fluid. The ascetic fluid prepared was filtered through a cell strainer (Becton Dickinson) and centrifuged at 50×g for 7 minutes. The cells precipitated were suspended in MCM and centrifuged again at 50×g for 7 minutes. After the precipitated cells were resuspended in MCM, the suspension was layered on 2 ml of 32% (w/v) BSA solution (dissolved in 0.9% NaCl), which was allowed to stand at room temperature for 20 minutes. After centrifugation was conducted at ×300 g for 15 minutes at room temperature, the cells in the interphase between MCM and BSA solution were discarded and the precipitated cells were suspended in MCM. The suspension was centrifuged at ×300 g for 5 minutes to wash the cells twice. The precipitated cells were suspended in assay buffer (RPMI 1640 medium (Invitrogen), 0.1% BSA) and the cells were provided for the following experiment. […] RPMC was activated as follows. RPMC was suspended in assay buffer and 10 μg/ml of monoclonal mouse antibody DNP-IgE (Yamasa) was added thereto. The mixture was allowed to stand for 30 minutes on ice for passive sensitization. After centrifugation at ×300 g for 5 minutes, the precipitated cells were washed 3 times with assay buffer. RPMC suspended in assay buffer was dispensed into a 96 well V-bottomed plate in 2×10^5/well. The assay was performed at n=3 under the respective reaction conditions. After a plate was kept warm at 37° C. for 5 minutes, lysoPS (Sigma) of 3 μM in a final concentration or DNP-BSA (Carbiochem) of 100 ng/ml in a final concentration was added depending on the assay conditions and the plate was allowed to stand at 37° C. in a 5% CO2 incubator. The plate was ice-cooled 2, 4, 6 and 8 hours after to terminate the activation of RPMC. Centrifugation was performed at ×300 g for 5 minutes and the total RNA was extracted from the cells precipitated using RNeasy Mini Kit (Qiagen) in accordance with the protocol attached. The obtained total RNA was concentrated and dissolved in RNase-free H2O in accordance with the protocol attached. Next, using 250 ng of the total RNA, reverse transcription was performed by the following procedure using SuperScript II ReverseTranscriptase (Invitrogen) to prepare single-stranded cDNA. After 0.5 μg of Oligo (dT) 12-18 primer (Invitrogen) and 1 μl of 10 mM dNTP (Invitrogen) were added to the total RNA solution and then RNase-free H2O was added to make the whole volume 12 μl, incubation was performed at 70° C. for 10 minutes followed by ice cooling for a minute. After adding 4 μl of 5× First-Strand Buffer (attached to SuperScript II ReverseTranscriptase), 2 μl of 0.1M DTT (attached to SuperScript II ReverseTranscriptase), 1 μl of RNaseOUT (Invitrogen) and 1 μl of SuperScript II ReverseTranscriptase, incubation was performed at 42° C. for 50 minutes and then at 70° C. for 15 minutes, followed by ice cooling for 5 minutes. The thus prepared cDNA was purified using Ethachinmate in accordance with the protocol attached and dissolved in Tris-EDTA Buffer (Fluka).
In TaqMan PCR below, rIL-13-tF (SEQ ID NO: 24) and rIL-13-tR (SEQ ID NO: 25) were used as primers and rIL-13-tP (SEQ ID NO: 26) as a probe for quantification of rat IL-13 (interleukin-13) and rIL-13 standard (SEQ ID NO: 27) was used as a standard. TaqMan Rodent GAPDH Control Reagents VIC Probe (Applied Biosystems) were used as primers and a probe for quantification of GAPDH, and rGAPDH standard (SEQ ID NO: 28) was used as a standard. […]
A general note: Quantitative PCR measures a nucleic acid by following its amplification.

In test [2] the test system is rat peritoneal mast cells. Description: Degranulation of rat peritoneal mast cells (β-hexosaminidase activity in supernatant). Format: cell-based. To be noted: for degranulation: 20 minutes. How it is done:
The rat peritoneal mast cells (RPMC) obtained by the procedure described in EXAMPLE 1 were subjected to passive sensitization for 30 minutes on ice using DNP IgE (Yamasa, 10 μg/ml), washed and plated on a 96-well plate in a final cell concentration of 100,000 cells/well in the reaction solution. RPMC was stimulated by lysoPS and DNP-BSA (Carbiochem) and the plate was centrifuged 20 minutes after. The β-hexosaminidase activity in the supernatant of the reaction solution was assayed using the degradation activity of 4-methylumbeliferryl-2-acetamido-2-deoxy-β-D-glucopyranoside (Wako Pure Chemicals) as an indicator.

The mark [3] stands for this setting: antigen (DNP-BSA 100 ng/ml)+lysoPS 3 μM, 4 hours after the stimulation.
Setting [4] is: antigen+lysoPS 3 μM, 6 after the stimulation.
[5] abbreviates: antigen+lysoPS 3 μM, 8 hours after the stimulation.

For lysophosphatidylserine [lysoPS], the figures for the “expression level of IL-13 after GAPDH correction, compared to stimulation by the antigen alone” value in test [1] (setting [3]) and in test [1] (setting [5]) were “about 36 times” and “about 27 times”, respectively. In addition, the “expression level of IL-13 after GAPDH correction, compared to the level without any stimulation” value in test [1] (setting [3]) was “about 27 times”; in test [1] (setting [5]), “about 13 times”. In addition, in test [1] (setting [4]), the “expression level of IL-13, compared to stimulation by the antigen alone” value was “about 19 times”. In test [1] (setting [4]), the “expression level of IL-13, compared to the level without any stimulation” value is listed as “about 13 times”. Besides, the “expression level of IL-13 (in words)” value in test [1] (stimulated by the antigen+lysoPS) is “marked increase in expression”. Besides, the degranulation is reported as 8.4% in test [2] (100 ng/ml DNP-BSA with 0.1 μM lysoPS added simultaneously); 14.7% in test [2] (100 ng/ml DNP-BSA with 0.3 μM lysoPS added simultaneously); 26.0% in test [2] (100 ng/ml DNP-BSA with 1 μM lysoPS added simultaneously); 36.7% in test [2] (100 ng/ml DNP-BSA with 3 μM lysoPS added simultaneously); 45.2% in test [2] (100 ng/ml DNP-BSA with 10 μM lysoPS added simultaneously). Moreover, the “degranulation (in words)” value in test [2] (0.1 to 10 μM lysoPS with 100 ng/ml DNP-BSA) is “increased concentration-dependently”.
